Data published in US10166271B2, “Methods for promoting hair growth” (THE REGENTS OF THE UNIVERSITY OF CALIFORNIA, priority 2006, dated 2019).
Where “and” joins values, the source holds several entries; their conditions need not be identical. Identical values can stand only once.

Key:
[1] = system: CRF-OE mice; assay: Hair growth and skin pigmentation after ip injection in adult alopecic CRF-OE mice (Example 2); format: in vivo; parameters: key to Back Hair Growth Score (BK) / Ventral Abdomen Hair Growth Score (VAb): hair growth score 0-10: 0 = no change in hair, 10 = full hair growth; key to Skin pigmentation (Pg) score: pigment score 0-10: 0 = bright pink skin, 10 = fully black; settings: for Back Hair Growth Score (BK) / Skin pigmentation (Pg) score / Ventral Abdomen Hair Growth Score (VAb): adult male CRF-OE mice, individual mice and Ave.
Protocol: Hair growth in CRF-OE mice was assessed using the hair growth scale developed by Vegesna et al. […], 2002) modified to account for phenotypic differences between CRF-OE mice. Scores were made visually as well as using photographs of each mouse at a weekly interval. The degree of alopecia varied between individual CRF-OE mice; thus, the percent difference between the amount of hair present in the test area (described below) before and 4 weeks after treatment was converted to a score of 0-10. A zero score corresponded to a no change in the amount of hair in the test area and a score of 10 corresponded to full hair growth in the entire test area. The scale for monitoring hair growth in CRF-OE mice is more particularly described in Table 2.
Pigmentation of the skin (also referred to as skin color) in the test region was also measured because, in C57BL/6 mice, the skin darkens at the onset of hair growth. A pigmentation score from 0-10 was given to each mouse with a score of 0 corresponding to bright pink skin color/pigment in the entire test region, a score of 1-5 corresponding to increasing intensity of a pale greyish color/pigment of skin in the test region, a score of 6-9 corresponding to increasing but non-confluent darker color/pigment of skin in the test region, and a score of 10 corresponding to black pigmentation of the entire test region. Pigmentation was measured one week after the fifth and final injection because changes (if any) in pigmentation are substantially complete by that time.
CRF-OE mice (approximately 4 months old) with fully developed alopecia on their backs were injected intraperitoneally (ip) with equal volumes (0.1 ml) of either saline or astressin B (5 μg/mouse/day) for 5 consecutive days. Skin pigment score and hair growth (on the back) score were determined as described in Example 1. In addition, because adult CRF-OE mice also lose ventral abdomen hair, a ventral abdomen (Vab) hair growth score was determined. The area considered for scoring ventral abdomen hair growth was delineated, in the front (anteriorly), by a horizontal line across the tip of the xifoid process (distal sternum), in the rear (posteriorly), by a horizontal line joining the back of the thighs along the anus, and, laterally, by a straight line along the lateral side of the ventral abdomen on left and right sides.

[2] = system: ACTH release; settings: adrenalectomized rats; similar doses; Rivier et al. 1999; cited from earlier work
[3] = system: young CRF-OE mice; assay: Astressin B fragments, prevention of hair loss in young CRF-OE mice (Example 9); format: in vivo; settings: 5 μg sc or ip x 5 days, all time points
Protocol: CRF-OE mice similarly injected with 0.1 ml saline alone (or 5 μg astressin 2B in 0.1 ml saline) are used as negative controls. Astressin B fragments are as described in Example 8.

[4] = system: young CRF-OE mice; assay: Cyclic CRF antagonists, prevention of hair loss in young CRF-OE mice (Example 11); format: in vivo; settings: at least four weeks after the final administration
Source text: Although mice are particularly described, one skilled in the art will appreciate that other laboratory animals and human subjects can be used, and doses adjusted accordingly (for example based on the weight of the subject, or the area to which the peptide is to be applied). Similarly, although particular modes of administration are described, one will appreciate that variations can be made (such as those disclosed herein and those known in the art).
Any method of administration can be used, including injection, transdermal/topical delivery, or combinations thereof.
In one example, therapeutic peptides are administered via injection. For example, mice can be injected subcutaneously or intraperitoneally with at least 0.05 μg, at least 0.5 μg, at least 5 μg, at least 50 μg, or at least 500 μg of one or more therapeutic peptides (for example 0.5-50 μg peptide, 0.5-10 μg peptide, or 5 μg peptide). The peptide can be administered in 0.1 ml sterile saline (or 5% mannitol) once per day for at least 5 consecutive days, such as at least 10 days, at least 30 days, or at least 60 days. […] As a negative control, CRF-OE mice receive saline alone (such as 10-100 μl) or 5 μg astressin 2B in 0.1 ml saline.
In another example, therapeutic peptides are administered topically or transdermally. […]

[5] = similar doses; Rivier et al. 2002; cited from earlier work
[6] = ip 5 μg/mouse/day x 5 days, CRF-OE mice
[7] = ip 5 μg/mouse/day x 5 days, Before (Week 0), listed as AB
[8] = ip 5 μg/mouse/day x 5 days, Before (Week 0), listed as AB, mean
[9] = ip 5 μg/mouse/day x 5 days, Week 1, listed as AB
[10] = ip 5 μg/mouse/day x 5 days, Week 1, listed as AB, mean
[11] = ip 5 μg/mouse/day x 5 days, Week 8, listed as AB
[12] = ip 5 μg/mouse/day x 5 days, Week 8, listed as AB, mean

Substance: (cyclo 30-33)[DPhe12, Nle21,38, Cml27,40, Glu30, Lys33]Ac-h/rCRF9-41 [Astressin B]
- Onset of dark skin pigment after the final injection [1, 6]: ≤ 3 days
- Time of darkest skin color / maximal pigment response after the final injection [1, 6]: 7 to 10 days
- Re-grown hair maintained / retained after the final ip injection ([1]; ip 5 μg/mouse/day x 5 days, CRF-OE mice, listed as astressin B): ≥ 8 weeks
- Re-grown hair maintained / retained after the final ip injection ([1]; ip 5 μg/mouse/day x 5 days, CRF-OE mice, listed as astressin-B): 8 weeks
- Back Hair Growth Score (BK) [1, 7]: 2 and 1 (3×)
- Skin pigmentation (Pg) score [1, 7]: 0.0
- Ventral Abdomen Hair Growth Score (VAb) [1, 7]: 5 (3×) and 2.5
- Back Hair Growth Score (BK) [1, 8]: 1.25
- Skin pigmentation (Pg) score [1, 8]: 0
- Ventral Abdomen Hair Growth Score (VAb) [1, 8]: 4.4
- Skin pigmentation (Pg) score ([1]; ip 5 μg/mouse/day x 5 days, Week 1): 10
- Back Hair Growth Score (BK) [1, 9]: 9.5 and 10 and 9 (2×)
- Ventral Abdomen Hair Growth Score (VAb) [1, 9]: 10 (2×) and 8 (2×)
- Back Hair Growth Score (BK) [1, 10]: 9.4
- Ventral Abdomen Hair Growth Score (VAb) [1, 10]: 9
- Ventral Abdomen Hair Growth Score (VAb) ([1]; ip 5 μg/mouse/day x 5 days, Week 4): 10
- Back Hair Growth Score (BK) ([1]; ip 5 μg/mouse/day x 5 days, Week 4, listed as AB): 10 (3×) and 9.5
- Back Hair Growth Score (BK) ([1]; ip 5 μg/mouse/day x 5 days, Week 4, listed as AB, mean): 9.9
- Ventral Abdomen Hair Growth Score (VAb) ([1]; ip 5 μg/mouse/day x 5 days, Week 4, mean): 10
- Back Hair Growth Score (BK) [1, 11]: 10 and 9.5 and 8.5 and 8
- Ventral Abdomen Hair Growth Score (VAb) [1, 11]: 10 (2×) and 8 (2×)
- Back Hair Growth Score (BK) [1, 12]: 9
- Ventral Abdomen Hair Growth Score (VAb) [1, 12]: 9
- Hair coverage ([1]; ip 5 μg/mouse/day x 5 days, at 2 weeks, four-month old male CRF-OE mice): 95-100%
- Re-grown hair largely maintained after the last ip injection ([1]; ip 5 μg/mouse/day x 5 days, four-month old male CRF-OE mice): up to 16 weeks
- Hair growth score (fully grown hair) ([1]; ip, four and seven weeks after the final injection, all mice): 9-10
- Mice with dark skin ([1]; ip, one week after the final injection, fraction of mice): 4/4
- Duration of inhibition of elevated ACTH release [2]: over 12 hours

Substance: cyclo(31-34)[DPhe11, His12, CαMeLeu13,39, Nle17, Glu31, Lys34]Ac-Sau(8-40) [Astressin 2B, reference compound]
- Hair in the test area [3]: develop ultimately alopecia in the test area
- Hair in the test area [4]: ultimately develop alopecia in the test area
- Duration of delay of gastric emptying [5]: over 6 hours
